# Measured values from publication PMC9856199, “Intact Transition Epitope Mapping—Force Differences between Original and Unusual Residues (ITEM-FOUR)” (Biomolecules, 2023).
# pKd: −log10 of the molar value. Peptide text beside a SMILES is read from it.
# Columns and labels:
# Type in all cases: binding
# [1] = target: monoclonal anti-hcTn I antibody [MF4] (ab38210 from Abcam); assay: ITEM-FOUR: nanoESI-MS gas-phase dissociation of antibody-peptide immune complexes; settings: for KD m0g#: apparent gas-phase dissociation constant, unitless number; for KD m0g# / kD m0g#: mean charge state, extrapolated to no excess energy; for kD m0g#: apparent gas-phase dissociation rate constant; for ΔGm0g# / ΔHm0g# / TambΔSm0g#: apparent, gas-phase immune complex dissociation; for TambΔSm0g#: Tamb 298 K; for binder group by ITEM-FOUR: grouping by ΔHm0g# and binding behaviour in the gas phase; for Initial [%] (immune complex amount at the lowest applied ∆CV): normalized educt ion intensity at ∆CV 2 V; for Initial [%] (immune complex amount at the lowest applied ∆CV) / Final [%] (immune complex amount at the highest applied ∆CV): antibody:peptide 1:2.2, 200 mM ammonium acetate pH 6.7, averaged from all measurements; for Final [%] (immune complex amount at the highest applied ∆CV): normalized educt ion intensity at ∆CV 80 V; for Slope: slope of tangent along steep part of Boltzmann curve
# Experimental: Starting materials and antibody-peptide complex-containing solutions were prepared as previously described. In brief, an aliquot of 25 µL (50 µg) of the monoclonal anti-hcTn I antibody [MF4] (ab38210 from Abcam, Cambridge, United Kingdom) was placed on a 10K centrifugal filter device (Merck Millipore, Carrigtwohill, Ireland) with 400 µL 200 mM ammonium acetate, pH 6.7. After centrifugation at 13,000 rpm for 7 min in an Eppendorf centrifuge (MiniSpin, Eppendorf, Hamburg, Germany), the flow through was discarded and the filter was filled-up with 450 µL 200 mM ammonium acetate, pH 6.7. This centrifugation/discarding/refilling step was repeated eight times. Afterwards, the filter was placed upside down in a new tube and centrifuged for 5 min at 4500 rpm. Approximately 50 µL of antibody solution were collected (solution 1). […] Synthesized hcTn I peptides (Table 1) were purchased as lyophilized powders (peptides and elephants, Hennigsdorf, Germany) and dissolved in 200 mM ammonium acetate, pH 6.7, to obtain peptide concentrations of ca. 2.0 mg/mL, each. The actual peptide concentrations of individual peptide solutions were determined using the Qubit^TM 2.0 Fluorometer assay. Afterwards, all peptide solutions were diluted 1:100 with 200 mM ammonium acetate, pH 6.7 (solution 2). To obtain immune-complex-containing mixtures, the antibody solution (solution 1) and the peptide solution (solution 2) were mixed to obtain final molar antibody-peptide ratios of 1:2.2 (solution 3). Typically, 4 µL of antibody solution were mixed with the appropriate volume (typically 1–2 µL) of the individual peptide solution. Solutions 3 were incubated at room temperature for at least 1 h.
# For each ITEM-FOUR examination, 3 µL of the peptide, antibody, or immune complex-containing solution were loaded into nanoESI capillaries that were pulled and gold coated in house. NanoESI-MS measurements were performed with a Synapt G2-S mass spectrometer (Waters MS-Technologies, Manchester, United Kingdom) with the following settings for ITEM-FOUR measurements: capillary voltage, 1.8 kV; source temperature, 40 °C; source offset voltage, 110 V; sample cone voltage, 110 V; cone gas flow, 100 L/h; trap gas flow, 8.0 mL/min; transfer collision cell voltage, 2 V. Measurements were acquired in positive-ion resolution mode, applying a mass window of m/z 200–8000. This mass range was calibrated using 1 mg/mL sodium iodide dissolved in isopropanol/water (50:50, v/v). The quadrupole analyzer was used with the following settings: M1 = 4000, dwell time, and ramp time 25%; M2 = 5000, dwell time, and ramp time 25%; and M3 = 6000 to block transmission of lower molecular weight ions. The first collision cell (TRAP) was used to dissociate antibody-peptide complexes by increasing the collision cell voltage difference (∆CV) in a stepwise manner every 60 s. The collision cell voltage difference steps were: 2, 4, 6, 8, 12, 16, 20, 30, 40, 50, 60, 70, and 80 V. Measurements were repeated at least twice (up to seven times) per immune complex, generating a total of 32 measurement series. The mass spectrometry proteomics data have been deposited to the ProteomeXchange Consortium via the PRIDE [33] partner repository with the dataset identifier PXD038365.
# MassLynx version 4.1 (Waters MS-Technologies) was used for data analysis as described previously. First, the scans of each ∆CV setting encompassing 60 s of recording were combined to generate an average mass spectrum for each ∆CV step. Next, the mass spectra were smoothened in 20 cycles with a window of 10 using the Savitzky-Golay algorithm. The ion intensities of all molecular species and their corresponding charge states (complex ions, complex-released peptides, and antibody fragments) were read after smoothing. A bell-shaped Gaussian curve of the intensities of each molecular species was calculated using Origin 2017 (32-bit) SR2 (OriginLab Corporation, Northampton, MA, USA). […]
# [2] = target: monoclonal anti-hcTn I antibody [MF4] (ab38210 from Abcam); assay: Isothermal titration calorimetry of immune complex formation in solution; settings: for ∆H / ∆G: immune complex formation in solution; for ∆H: 298 K; for ∆G: calculated from KA (van´t Hoff equation); for T∆S: T = 298 K, calculated with Gibbs-Helmholtz equation
# Experimental: The monoclonal anti-hcTn I antibody [MF4] (ab38210 from Abcam, Cambridge, United Kingdom) was stored in PBS (0.138 M NaCl; 0.0027 M KCl, pH 7.4 from Sigma-Aldrich, St. Louis, MO, US), pH 7.4, and was used as purchased. The hcTn I peptides 1, 2, 4, 6, 7, and 8 were dissolved in PBS and stock solutions with 0.32 to 0.93 mg/mL peptide concentrations were prepared.
# Isothermal titration calorimetry measurements were performed with an Affinity ITC instrument (Waters|TA Instruments, New Castle, DE, USA) at T = 298 K equipped with a 190 µL sample cell and a matching reference cell, AccuShot for precise delivery of the titrant, and a Flex Spin for slow speed stirring (125 rpm), efficient mixing, and highest sensitivity. The anti-hcTn I antibody was placed in the sample cell at 1.95 µM (in PBS). The hcTn I peptides, each at 40 µM (in PBS), were automatically titrated to the antibody in 18–20 steps (2 µL per step). The time between titrations was 200 s to establish a baseline between each injection for accurate heat determination and modeling.
# The integrated areas under each injection peak (heat over time) were plotted against the active species’ respective molar ratios ranging from 1:0.4 to 1:6.6. An independent binding model was chosen to fit all the data and directly determine the enthalpy (ΔH) and association constant (KA). Gibbs free energy (ΔG) is calculated from the KA using the van´t Hoff equation. The change in entropy term (ΔS) is calculated applying the Gibbs-Helmholtz equation.
# anti-Histag antibody = assay: nanoESI-MS of peptide mixed with unrelated antibody (specificity control); settings: binary mixture, 200 mM ammonium acetate pH 6.7
# Experimental: Figure S15. Nano-ESI mass spectra of Troponin I peptide 7 (ENREVGDWPKNIDAL) upon incubation with anti-Histag […]
# ion signal) and (b) with blocked transmission of low mass ions (< 4800 ) and collision cell voltage differences of 2V and (c) with blocked transmission of low mass ion (< 4800) and collision cell voltage differences of 80V. Charge states are given for […]
# Antibody fragment ion signals are visible between m/z 1200 and 2300 in (c). Solvent: 200 mM ammonium acetate, pH 6.7.
# (1 picture or pasted object on this page, not shown here)
# [3] = ITC in PBS pH 7.4, 298 K, antibody 1.95 µM in cell, peptide 40 µM titrant, independent binding model, unitless number
# [4] = ITC in PBS pH 7.4, 298 K, independent binding model, unitless number
Molecule,KD m0g# [1],kD m0g# [1],ΔGm0g# [1],ΔHm0g# [1],TambΔSm0g# [1],binder group by ITEM-FOUR [1],Initial [%] (immune complex amount at the lowest applied ∆CV) [1],Final [%] (immune complex amount at the highest applied ∆CV) [1],Slope [1],"pKd [2, 3]","KA [2, 4]",∆H ([2]; ITC),∆G ([2]; ITC),T∆S ([2]; ITC),"binding to anti-hcTn I antibody (in words) ([1]; ITEM analysis of peptide-antibody mixture, molar ratio 2.2:1)",complex formation with anti-Histag antibody (in words) (anti-Histag antibody),"KD [2, 3]","binding in solution (in words) ([2]; ITC, PBS pH 7.4, 298 K)"
CC[C@H](C)[C@H](NC(=O)[C@H](CC(N)=O)NC(=O)[C@H](CCCCN)NC(=O)[C@H](CC(C)C)NC(=O)[C@H](Cc1c[nH]c2ccccc12)NC(=O)[C@H](CC(=O)O)NC(=O)CNC(=O)[C@@H](NC(=O)[C@H](CCC(=O)O)NC(=O)[C@H](CCCNC(=N)N)NC(=O)[C@H](CC(N)=O)NC(=O)[C@@H](N)CCC(=O)O)C(C)C)C(=O)N[C@@H](CC(=O)O)C(=O)N[C@@H](C)C(=O)N[C@@H](CC(C)C)C(=O)O [Peptide 4] (H-ENREVGDWLKNIDAL-OH),4.77 × 10^−12 Ø,7.37e+12 s⁻¹,15.44 kcal/mol,-0.538 kcal/mol,-15.97 kcal/mol,strong binders (“strong binders” (group II) with ΔHm0g# values below −2 kJ/mol),41.60%,23.12%,−0.35 %/V,6.61,4.12 × 10^6 Ø,-12.45 kcal/mol,-9.027 kcal/mol,-3.425 kcal/mol,,,,
CC[C@H](C)[C@H](NC(=O)[C@H](CC(N)=O)NC(=O)[C@H](CCCCN)NC(=O)[C@H](CCCNC(=N)N)NC(=O)[C@H](Cc1c[nH]c2ccccc12)NC(=O)CNC(=O)CNC(=O)[C@@H](NC(=O)[C@H](CCC(=O)O)NC(=O)[C@H](CCCNC(=N)N)NC(=O)[C@H](CC(N)=O)NC(=O)[C@@H](N)CCC(=O)O)C(C)C)C(=O)N[C@@H](CC(=O)O)C(=O)N[C@@H](C)C(=O)N[C@@H](CC(C)C)C(=O)O [Peptide 6] (H-ENREVGGWRKNIDAL-OH),4.62 × 10^−12 Ø,2.9e+12 s⁻¹,15.46 kcal/mol,-0.442 kcal/mol,-15.89 kcal/mol,"very strong binders (Peptides 1, 2, and 6 are “very strong binders” (group I) as their ΔHm0g# values of the gas-phase dissociation reaction are above −2 kJ/mol)",58.83%,23.33%,−0.75 %/V,6.39,2.43 × 10^6 Ø,-10.85 kcal/mol,-8.721 kcal/mol,-2.13 kcal/mol,,,,
ENREVGDWPKNIDAL [Peptide 7],,,,,,weak and unorthodox binder,15.37%,5.90%,,,n.b.,n.b.,n.b.,n.b.,bound by the paratope in an unorthodox fashion,no complex formation was detected,n.b.,did not bind in solution
